Key:
Rattus norvegicus [1] = experiment: Tested for the inhibition of Tumor necrosis factor alpha production after intravenous administration at the dosage of 10 mg/kg to rat; type: functional; details: for inhibition in vivo at 10 mg/kg: Rattus norvegicus
Rattus norvegicus [2] = experiment: Tested for the inhibition of Tumor necrosis factor alpha production after intravenous administration to rat; type: functional; details: read-out: ID50 (the source's name)
Mus musculus [3] = experiment: Tested for minimum effective dose in LPS-induced shock model in mice after intravenous administration at a dose of 5 mg / kg; survival rate=10/18; type: functional; details: read-out: MED
Rattus norvegicus [4] = experiment: Tested for minimum effective dose in D-(+)-Galactosamine/ LPS-induced hepatitis model in rat after intravenous dosage of 1 g/ 7.5 ug/ 5 mL/kg; survival rate=8/18; type: functional; details: read-out: MED
[5] = Tested for the safety in rats reported as minimum lethal dose; mortality rate=1/3; type: ADME; details: rat, in vivo
Rattus norvegicus [6] = experiment: Tested for the inhibition of umor necrosis factor alpha production after intravenous administration at the dosage of 30 mg/kg to rat; type: functional
Mus musculus [7] = experiment: Tested for the inhibition of Tumor necrosis factor alpha production after intravenous administration in mice; type: functional; details: read-out: ID50 (the source's name)
Mus musculus [8] = experiment: Tested for the inhibition of Tumor necrosis factor alpha production after intravenous administration at the dosage of 10 mg/kg to mice; no activity was observed; type: functional
Mus musculus [9] = experiment: Tested for minimum effective dose in LPS-induced shock model in mice after intravenous administration at a dose of 5 mg / kg; survival rate=14/20; type: functional; details: read-out: MED
Rattus norvegicus [10] = experiment: Tested for minimum effective dose in D-(+)-Galactosamine/ LPS-induced hepatitis model in rat after intravenous dosage of 1 g/ 7.5 ug/ 5 mL/kg; survival rate=6/18; type: functional; details: read-out: MED
[11] = Tested for the safety in rats reported as minimum lethal dose; mortality rate=0/3; type: ADME; details: rat, in vivo
Rattus norvegicus [12] = experiment: Tested for minimum effective dose in D-(+)-Galactosamine/ LPS-induced hepatitis model in rat after intravenous dosage of 1 g/ 7.5 ug/ 5 mL/kg; survival rate=7/18; type: functional; details: read-out: MED
Rattus norvegicus [13] = experiment: Tested for the inhibition of Inhibitor of Tumor necrosis factor alpha production after intravenous administration to rat; type: functional; details: read-out: ID50 (the source's name)

Compound: CCCCCCCC(=O)N[C@H](c1ccccc1)[C@H](CO)OP(=O)(O)O
- inhibition in vivo at 10 mg/kg (Rattus norvegicus [1]): 42%

Compound: CCCCCCCC(=O)N[C@@H](c1cccc(OC)c1)[C@H](C)OP(=O)([O-])[O-].[Na+].[Na+]
- ED50 (Rattus norvegicus [2]): 3.7 mg/kg

Compound: CCCCCCCC(=O)N[C@@H](c1cccc(OC)c1)[C@@H](C)OP(=O)(O)O
- inhibition in vivo at 10 mg/kg (Rattus norvegicus [1]): 38%

Compound: CCCCCCCC(=O)N[C@H](c1cccc(OC)c1)C(C)(C)OP(=O)(O)O
- inhibition in vivo at 10 mg/kg (Rattus norvegicus [1]): 12%

Compound: CCCCCCCC(=O)N[C@H](c1cccc(OC(C)C)c1)[C@H](C)OP(=O)([O-])[O-].[Na+].[Na+]
- minimal effective dose (Mus musculus [3]): 0.3 mg/kg
- ED50 (Rattus norvegicus [2]): 0.05 mg/kg
- minimal effective dose (Rattus norvegicus [4]): 0.3 mg/kg
- MLD [5]: 100 mg/kg

Compound: CCCCCCCC(=O)N[C@H](c1ccccc1)[C@@H](OP(=O)(O)O)c1ccccc1
- inhibition in vivo at 10 mg/kg (Rattus norvegicus [1]): 3%

Compound: CCCCCCCC(=O)N[C@@H](c1ccccc1)[C@H](C)OP(=O)(O)O
- inhibition in vivo at 30 mg/kg (Rattus norvegicus [6]): 17%

Compound: CCCCCCCC(=O)N[C@H](c1cccc(OC)c1)[C@@H](C)OP(=O)(O)O
- inhibition in vivo at 10 mg/kg (Rattus norvegicus [1]): -13%

Compound: CCCCCCCC(=O)N(C)[C@@H](COP(=O)([O-])[O-])c1ccccc1.[Na+].[Na+]
- ED50 (Rattus norvegicus [2]): 9.8 mg/kg

Compound: CCCCCCCC(=O)N[C@@H](COP(=O)([O-])[O-])c1cccc(OC)c1.[Na+].[Na+]
- ED50 (Rattus norvegicus [2]): 0.26 mg/kg

Compound: CCCCCCCC(=O)N[C@@H](COP(=O)([O-])[O-])c1ccccc1.[Na+].[Na+]
- ED50 (Rattus norvegicus [2]): 3 mg/kg

Compound: CCCCCCCC(=O)N[C@H](c1ccccc1)[C@@H](C)OP(=O)(O)O
- inhibition in vivo at 30 mg/kg (Rattus norvegicus [6]): 23%

Compound: CCCCCCCC(=O)N[C@H](c1ccccc1)C1(OP(=O)([O-])[O-])CCC1.[Na+].[Na+]
- ED50 (Mus musculus [7]): 9.5 mg/kg

Compound: CCCCCCCC(=O)N[C@@H](c1ccccc1)[C@@H](C)OP(=O)(O)O
- inhibition in vivo at 30 mg/kg (Rattus norvegicus [6]): 5%

Compound: CCCCCCCC(=O)N[C@@H](CO)c1ccccc1
- inhibition in vivo at 10 mg/kg (Mus musculus [8]): 14%

Compound: CCCCCCOC(=O)N[C@H](c1cccc(OC)c1)[C@H](C)OP(=O)([O-])[O-].[Na+].[Na+]
- minimal effective dose (Mus musculus [9]): 0.1 mg/kg
- ED50 (Rattus norvegicus [2]): 0.02 mg/kg
- minimal effective dose (Rattus norvegicus [10]): 0.1 mg/kg
- MLD [11]: > 100 mg/kg

Compound: CCCCCCCC(=O)N[C@H](c1ccccc1)[C@H](C)OP(=O)([O-])[O-].[Na+].[Na+]
- ED50 (Rattus norvegicus [2]): 4.5 mg/kg

Compound: CCCCCCCC(=O)N[C@H](c1cccc(OC)c1)[C@H](C)OP(=O)([O-])[O-].[Na+].[Na+]
- minimal effective dose (Mus musculus [3]): 0.1 mg/kg
- minimal effective dose (Rattus norvegicus [12]): 0.3 mg/kg
- MLD [11]: > 100 mg/kg
- ED50 (Rattus norvegicus [13]): 0.03 mg/kg

Compound: CCCCCCCC(=O)N[C@@H]1c2ccccc2C[C@@H]1OP(=O)([O-])[O-].[Na+].[Na+]
- Inhibition (Rattus norvegicus [1]): 34%

Compound: CCCCCCCC(=O)N[C@@H]1c2ccccc2C[C@H]1OP(=O)([O-])[O-].[Na+].[Na+]
- ED50 (Rattus norvegicus [2]): 2.4 mg/kg
